Ends that are not written are not given here.
Test system: rat spontaneous urination
Assay: Rat spontaneous urination test (metabolism cage, 7 days ingestion from drinking)
Format: in vivo
Conditions: aqueous 0.1 mg/mL LNDP solution from drinking for 7 days
Method: It was confirmed from Test Example 2 that LNDP promotes the efferent hypogastric nerve activity, and it was confirmed from Test Example 3 that LNDP inhibits the efferent the pelvic splanchnic nerve activity. Influence on the bladder, which is one of the internal organs dominated by these nerves, was therefore investigated.
Male Wistar rats which are 13 weeks old were received, and quarantined and acclimated in a thermostat animal room at 18 to 28° C. in a cycle including a 12-hour light period and a 12-hour dark period for 1 week, and ten 14- to 16-week-old rats per group were tested. An aqueous 0.1 mg/mL LNDP solution or water was ingested from drinking for 7 days, and the urination amount was measured as weight with an electronic balance installed under a urine-collecting opening in raising with a metabolism cage. The weight data of the electronic balance every minute were automatically inputted into a computer. […] The total urination amount and the frequency of urination per day were found, and the urine amount per one time of urination (=the total urination amount per day/the frequency of urination per day) was calculated as to an individual of each group. […] As to the comparison of the test substance and ingestion days with respect to each measured value, two-way analysis of variance (two-way ANOVA) with replication was performed.

significant difference in general symptoms vs water ingestion group: not observed
Sequence: NIPPLTQTPVVVPPFLQPE [LNDP, Asn-Ile-Pro-Pro-Leu-Thr-Gln-Thr-Pro-Val-Val-Val-Pro-Pro-Phe-Leu-Gln-Pro-Glu]
significant difference in change in body weight vs water ingestion group: not observed

— patent publication US20210401928A1, “ANTI-OBESITY AGENT, POLLAKIURIA IMPROVING AGENT, AND AUTONOMIC NERVOUS ACTIVITY REGULATOR” (ASAHI GROUP HOLDINGS, LTD., priority 2018, published 2021)
